The assay has as its target T1, Y2 receptors (Homo sapiens, UniProt P49146).
T1 construct: endogenous in cells; host or cells: KAN-Ts cells (membranes)
T1 sequence (P49146 1-381): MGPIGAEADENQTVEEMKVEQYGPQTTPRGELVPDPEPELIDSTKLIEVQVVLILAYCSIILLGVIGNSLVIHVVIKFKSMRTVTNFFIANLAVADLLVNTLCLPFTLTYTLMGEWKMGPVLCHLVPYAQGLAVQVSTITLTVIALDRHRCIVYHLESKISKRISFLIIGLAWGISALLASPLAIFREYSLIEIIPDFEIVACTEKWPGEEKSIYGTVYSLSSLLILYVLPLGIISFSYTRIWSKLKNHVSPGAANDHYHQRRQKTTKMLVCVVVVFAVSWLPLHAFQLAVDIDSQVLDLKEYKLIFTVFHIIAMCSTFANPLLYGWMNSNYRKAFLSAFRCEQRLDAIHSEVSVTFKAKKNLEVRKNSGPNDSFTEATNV
The experiment in a line: Radioligand binding assay ([125I]PYY, KAN-Ts cell membranes). The following applies: Table 1, [125I]PYY 80 pM, average of results, read-out: IC50. The method in brief:
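IC50 values are means of three to eight experiments run in duplicate, fitted sigmoidally against specific binding (defined by […]). Competition used 80 pM [^125I]PYY for 1 h at room temperature on KAN-Ts membranes carrying native Y2, with filtration and scintillation counting.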

What is called IC50 is the point on the concentration scale where inhibition reaches its midpoint. For the compound `CCNC(=O)C(c1ccccc1)N1CCN(c2ccc(NC(=O)c3cccnc3Br)cc2F)CC1` (centres unmarked) [Example 100, 2-Bromo-N-{4-[4-(ethylcarbamoyl-phenyl-methyl)-piperazin-1-yl]-3-fluoro-phenyl}-nicotinamide], the IC50 worked out at 890 nM.
Consider `COC(=O)C(c1ccccc1)N1CCN(c2ccc(NC(=O)c3ccco3)cc2)CC1` (centres unmarked) [Example 101, (4-{4-[(Furan-2-carbonyl)-amino]-phenyl}-piperazin-1-yl)-phenyl-acetic acid methyl ester], for which the IC50 turned out to be 20000 nM.
For `COC(=O)C(c1ccccc1)N1CCN(c2ccc(NC(=O)c3ccoc3)cc2)CC1` (centres unmarked) [Example 102, (4-{4-[(Furan-3-carbonyl)-amino]-phenyl}-piperazin-1-yl)-phenyl-acetic acid methyl ester], the concentration for half-maximal inhibition (IC50) came out at 20000 nM.
As for `COC(=O)C(c1ccccc1)N1CCN(c2ccc(NC(=O)c3ccsc3)cc2)CC1` (centres unmarked) [Example 103, Phenyl-(4-{4-[(thiophene-3-carbonyl)-amino]-phenyl}-piperazin-1-yl)-acetic acid methyl ester], the figure is 2500 nM; as for `COC(=O)C(c1ccccc1)N1CCN(c2ccc(NC(=O)c3ccc[nH]3)cc2)CC1` (centres unmarked) [Example 104, Phenyl-(4-{4-[(1H-pyrrole-2-carbonyl)-amino]-phenyl}-piperazin-1-yl)-acetic acid methyl ester], 7000 nM; as for `COC(=O)C(c1ccccc1)N1CCN(c2ccc(NC(=O)c3ccccn3)cc2)CC1` (centres unmarked) [Example 106, Phenyl-(4-{4-[(pyridine-2-carbonyl)-amino]-phenyl}-piperazin-1-yl)-acetic acid methyl ester], 12000 nM.
With `COC(=O)C(c1ccccc1)N1CCN(c2ccc(NC(=O)c3cncnc3)cc2)CC1` (centres unmarked) [Example 108, Phenyl-(4-{4-[(pyrimidine-5-carbonyl)-amino]-phenyl}-piperazin-1-yl)-acetic acid methyl ester] the figure was 26000 nM; with `COC(=O)C(c1ccccc1)N1CCN(c2ccc(NC(=O)CC(C)C)cc2)CC1` (centres unmarked) [Example 109, {4-[4-(3-Methyl-butyrylamino)-phenyl]-piperazin-1-yl}-phenyl-acetic acid methyl ester], 6100 nM.
With `COC(=O)C(c1ccccc1)N1CCN(c2ccc(NC(=O)c3ccccc3Br)cc2)CC1` (centres unmarked) [Example 110, {4-[4-(2-Bromo-benzoylamino)-phenyl]-piperazin-1-yl}-phenyl-acetic acid methyl ester] the figure was 2400 nM; with `CCN(CC)C(=O)C(c1ccccc1)N1CCN(c2ccc(NC(=O)c3ccccc3Br)cc2F)CC1` (centres unmarked) [Example 111, 2-Bromo-N-{4-[4-(diethylcarbamoyl-phenyl-methyl)-piperazin-1-yl]-3-fluoro-phenyl}-benzamide], 340 nM.
Take `CCC(CC)C(=O)N(C)c1ccc(N2CCN(C(C(=O)N(CC)CC)c3ccccc3)CC2)c(F)c1` (centres unmarked) [Example 112, N-{4-[4-(Diethylcarbamoyl-phenyl-methyl)-piperazin-1-yl]-3-fluoro-phenyl}-2-ethyl-N-methyl-butyramide]: the IC50 was found to be 450 nM.
Turning to `CCNC(=O)C(c1ccccc1)N1CCN(c2ccc(C(=O)NC(CC)CC)cc2F)CC1` (centres unmarked) [Example 113, 4-[4-(Ethylcarbamoyl-phenyl-methyl)-piperazin-1-yl]-N-(1-ethyl-propyl)-3-fluoro-benzamide], the 50% inhibitory concentration (IC50) is 5750 nM.
Take `COC(=O)C(c1ccccc1)N1CCN(c2ccc(C(=O)Nc3ccccc3)cc2)CC1` (centres unmarked) [Example 114, Phenyl-[4-(4-phenylcarbamoyl-phenyl)-piperazin-1-yl]-acetic acid methyl ester]: the IC50 was found to be 10000 nM.
Consider `CCC(CC)NC(=O)c1ccc(N2CCN(C(C(=O)OC)c3ccccc3)CC2)c(F)c1` (centres unmarked) [Example 115, {4-[4-(1-Ethyl-propylcarbamoyl)-2-fluoro-phenyl]-piperazin-1-yl}-phenyl-acetic acid methyl ester], for which the IC50 is 3200 nM.
As for `CCC(CC)NC(=O)c1ccc(N2CCN(C(C(=O)OC)c3ccccc3)CC2)cc1` (centres unmarked) [Example 116, {4-[4-(1-Ethyl-propylcarbamoyl)-phenyl]-piperazin-1-yl}-phenyl-acetic acid methyl ester], the figure is 10000 nM; as for `CCNC(=O)C(c1ccccc1)C1CCN(c2ccc(C(=O)NC(CC)CC)cc2F)CC1` (centres unmarked) [Example 117, 4-[4-(Ethylcarbamoyl-phenyl-methyl)-piperidin-1-yl]-N-(1-ethyl-propyl)-3-fluoro-benzamide], 10000 nM; as for `CC(=O)N(c1ccccc1)c1ccc(N2CCN(C(C(=O)Nc3ccc4c(c3)CCC4)c3ccccc3)CC2)cc1` (centres unmarked) [Example 118, 2-{4-[4-(Acetyl-phenyl-amino)-phenyl]-piperazin-1-yl}-N-indan-5-yl-2-phenyl-acetamide], 3400 nM.
Take `CCC(C)C(=O)Nc1ccc(N2CCC(C(C(=O)OC)c3ccccc3)CC2)cc1` (centres unmarked) [Example 120, {1-[4-(2-Methyl-butyrylamino)-phenyl]-piperidin-4-yl}-phenyl-acetic acid methyl ester]: the IC50 turned out to be 2400 nM.
`CCN(CC)C(=O)C(c1ccccc1)N1CCN(c2ccc(NC(=O)[C@H]3CCOC3)cc2C#N)CC1` (stereo partly drawn) [Example 122, (S)-Tetrahydro-furan-3-carboxylic acid {3-cyano-4-[4-(diethylcarbamoyl-phenyl-methyl)-piperazin-1-yl]-phenyl}-amide]: the concentration for half-maximal inhibition (IC50) was determined as 8 nM.
With `CCN(CC)C(=O)C(c1ccccc1)N1CCN(c2ccc(NC(=O)[C@@H]3CCOC3)cc2C#N)CC1` (stereo partly drawn) [Example 123, (R)-Tetrahydro-furan-3-carboxylic acid {3-cyano-4-[4-(diethylcarbamoyl-phenyl-methyl)-piperazin-1-yl]-phenyl}-amide] the figure was 17 nM.
With `CCC(CC)C(=O)Nc1ccc(N2CCN(C(C(=O)N(CC)CC)c3cc(Br)ccc3F)CC2)c(F)c1` (centres unmarked) [Example 124, N-(4-{4-[(5-Bromo-2-fluoro-phenyl)-diethylcarbamoyl-methyl]-piperazin-1-yl}-3-fluoro-phenyl)-2-ethyl-butyramide] the figure was 15 nM.
With `CCN(CC)C(=O)C(c1ccccc1)N1CCN(c2ccc(NC(=O)C3(c4ccccc4)CCCC3)cc2F)CC1` (centres unmarked) [Example 125, 1-Phenyl-cyclopentanecarboxylic acid {4-[4-(diethylcarbamoyl-phenyl-methyl)-piperazin-1-yl]-3-fluoro-phenyl}-amide] the figure was 20 nM.
Take `CCN(CC)C(=O)C(c1ccccc1)C1CCN(c2ccc(NC(=O)[C@H]3CCOC3)cc2F)CC1` (stereo partly drawn) [Example 126, (S)-Tetrahydro-furan-3-carboxylic acid {4-[4-(diethylcarbamoyl-phenyl-methyl)-piperidin-1-yl]-3-fluoro-phenyl}-amide]: the concentration for half-maximal inhibition (IC50) amounted to 25 nM.
As for `CCOC(=O)C(c1ccccc1)N1CCN(c2ccc(NC(=O)C(CC)CC)cc2F)CC1` (centres unmarked) [Example 127, {4-[4-(2-Ethyl-butyrylamino)-2-fluoro-phenyl]-piperazin-1-yl}-phenyl-acetic acid ethyl ester], the figure is 20 nM; as for `CCN(CC)C(=O)C(c1ccccc1)N1CCN(c2ccc(NC(=O)c3ccnn3CC)cc2F)CC1` (centres unmarked) [Example 128, 2-Ethyl-2H-pyrazole-3-carboxylic acid {4-[4-(diethylcarbamoyl-phenyl-methyl)-piperazin-1-yl]-3-fluoro-phenyl}-amide], 35 nM.
As for `CCC(CC)C(=O)Nc1ccc(N2CCN(C(C(=O)N(CC)CC)c3cccc(OC)c3)CC2)c(F)c1` (centres unmarked) [Example 129, N-(4-{4-[Diethylcarbamoyl-(3-methoxy-phenyl)-methyl]-piperazin-1-yl}-3-fluoro-phenyl)-2-ethyl-butyramide], the figure is 40 nM; as for `CCNC(=O)C(c1ccccc1)C1CCN(c2ccc(NC(=O)C3CCCC3)cc2C#N)CC1` (centres unmarked) [Example 130, Cyclopentanecarboxylic acid {3-cyano-4-[4-(ethylcarbamoyl-phenyl-methyl)-piperidin-1-yl]-phenyl}-amide], 40 nM.
Consider `CCN(CC)C(=O)C(c1ccccc1)C1CCN(c2ccc(NC(=O)c3cccnc3C)cc2F)CC1` (centres unmarked) [Example 131, N-{4-[4-(Diethylcarbamoyl-phenyl-methyl)-piperidin-1-yl]-3-fluoro-phenyl}-2-methyl-nicotinamide], for which the IC50 was found to be 50 nM.
As for `CCN(CC)C(=O)C(c1ccccc1)C1CCN(c2ccc(NC(=O)[C@@H]3CCOC3)cc2F)CC1` (stereo partly drawn) [Example 132, (R)-Tetrahydro-furan-3-carboxylic acid {4-[4-(diethylcarbamoyl-phenyl-methyl)-piperidin-1-yl]-3-fluoro-phenyl}-amide], the IC50 was found to be 55 nM.
As to `CCNC(=O)C(c1ccccc1)C1CCN(c2ccc(NC(=O)[C@H]3CCOC3)cc2C#N)CC1` (stereo partly drawn) [Example 133, (S)-Tetrahydro-furan-3-carboxylic acid {3-cyano-4-[4-(ethylcarbamoyl-phenyl-methyl)-piperidin-1-yl]-phenyl}-amide], the IC50 came out at 60 nM.
With `CCN(CC)C(=O)C(c1ccccc1)C1CCN(c2ccc(NC(=O)Cc3cscc3C)cc2F)CC1` (centres unmarked) [Example 134, N,N-Diethyl-2-(1-{2-fluoro-4-[2-(4-methyl-thiophen-3-yl)-acetylamino]-phenyl}-piperidin-4-yl)-2-phenyl-acetamide] the figure was 80 nM.
Take `CCN(CC)C(=O)C(c1ccccc1)N1CCN(c2ccc(NC(=O)C3CCC3)cc2F)CC1` (centres unmarked) [Example 135, Cyclobutanecarboxylic acid {4-[4-(diethylcarbamoyl-phenyl-methyl)-piperazin-1-yl]-3-fluoro-phenyl}-amide]: the IC50 is 60 nM.

(Values after patent publication US8183239B2, “Substituted piperazines and piperidines as modulators of the neuropeptide Y2 receptor” (Janssen Pharmaceutica NV, priority 2005, dated 2012).)
